Reference: US20260364184A1, “COMPOUND BASED ON OXOISOINDOLINYL-SUBSTITUTED TETRAHYDROPYRIMIDINE-DIONE AND USE THEREOF” (GLUETACS THERAPEUTICS (SHANGHAI) CO., LTD., priority 2023, published 2026)
Read-outs that look alike come from different tables or passages of the source.

How the values were obtained:
Assay type in all cases: cell-based
[1] = system: Human Acute T Lymphoblastic Leukemia Cells (Molt-4); test: Inhibition of Molt-4 cell proliferation (CellTiter luminescent viability); conditions: Homo sapiens; for inhibition at 0.01 µM: read-out: Inhibition Rate at 10 nM (%); for inhibition at 0.5 µM: read-out: Inhibition Rate at 500 nM (%)
Protocol: (§1) The tumor cells used herein were cultured in a cell culture medium listed in table 3 at 37 °C in an incubator with 5% CO2. Prior to experimentation, all cell lines used were correctly identified by STR profiling, and tested negative for mycoplasma contamination using a mycoplasma detection kit through routine screenings.
(§2) The IC50 values of the compounds of the present disclosure (including the compounds in Table 1, Table 2, and Examples 1-468) were determined using the CellTiter-Meiluncell Luminescent Cell Viability Assay Kit from Dalian Meilun Biotech Co., Ltd. The detailed procedure is as follows: Tumor cells were seeded in 96-well cell culture plates at the densities specified in Table 4. On the following day, the test compounds of the present disclosure were subjected to serial dilution. The dilution can be performed according to one of the following two methods: • (1) The first dilution method: The test compounds of the present disclosure (including the compounds in Table 1, Table 2, and Examples 1-468) were subjected to 5-fold serial dilutions starting from a highest concentration of 2000 μM, resulting in a total of 9 concentrations from high to low (2000, 400, 80, 16, 3.2, 0.64, 0.128, 0.0256, 0.00512 μM). Subsequently, 0.5 μL of the test compound dilution was transferred into the 96-well plate containing the cells, with each well containing 100 μL of cell culture medium. […] Into the 96-well plate, the diluted test compounds and corresponding detection reagents were added, resulting in final test compound concentrations of 500 nM and 10 nM, respectively. The experimental procedure is described below using the diluted 2 μM test compound as an example.
(§3) 0.5 μL of the aforementioned diluted compound of the present disclosure (including the compounds in Table 1, Table 2, and Examples 1-468) was added to the seeded cells in 100 μL of medium, yielding a final test compound concentration of 10 nM. After the cells were treated with the compounds of the present disclosure for a specified period, the cell viability assay reagent was added to the culture medium according to the kit's instructions to determine cell viability. […] All controls were treated using the same procedure as the compounds of the present disclosure. The growth inhibition curves for the compounds of the present disclosure were plotted using Prism GraphPad software, and the IC50 values were calculated therefrom.

[2] = system: Human Multiple myeloma cell line (MM.1S); test: Inhibition of MM.1S cell proliferation (CellTiter luminescent viability); conditions: Homo sapiens, MM1.S, 96 hours; for inhibition at 0.01 µM: 10 nM, read-out: Inhibition Rate at 10 nM (%); for inhibition at 0.5 µM: 500 nM, read-out: Inhibition Rate at 500 nM (%)
Protocol: as §1, §2, §3

[3] = system: Human myeloid monocytic leukemia cell line (MV-4-11); test: Inhibition of MV-4-11 cell proliferation (CellTiter luminescent viability); conditions: Homo sapiens, MV4-11, 96 hours; for inhibition at 0.01 µM: MV-4-11, 10 nM, read-out: Inhibition Rate at 10 nM (%); for inhibition at 0.5 µM: MV-4-11, 500 nM, read-out: Inhibition Rate at 500 nM (%)
Protocol: as §1, §2, §3

[4] = system: Human acute lymphocytic leukemia T lymphocytes cell line (CCRF-CEM); test: Inhibition of CCRF-CEM cell proliferation (CellTiter luminescent viability); conditions: Homo sapiens, 96 h; for inhibition at 0.01 µM: 10 nM, read-out: Inhibition Rate at 10 nM (%); for inhibition at 0.5 µM: 500 nM, read-out: Inhibition Rate at 500 nM (%)
Protocol: as §1, §2, §3

[5] = MOLT-4, 96 h, Table IA2, IRAK4 inhibitor-based, Molt-4, 10 nM, 96 hours
[6] = MOLT-4, 96 h, Table IA2, IRAK4 inhibitor-based, Molt-4, 500 nM, 96 hours
[7] = Table IL1, BCR-ABL inhibitor-based
[8] = Table IL2, BCR-ABL inhibitor-based
[9] = Table IL3, BCR-ABL inhibitor-based
[10] = MOLT-4, Molt-4, 10 nM, Table IN3
[11] = MOLT-4, Molt-4, 500 nM, Table IN3
[12] = Table IA5, IRAK4 inhibitor-based

Cc1cc(-c2nc(C(=O)Nc3cc4oc(N5CCOCC5)nc4nc3N3CC[C@@H](O)C3)co2)ccn1 [emavusertib, Emavusertib, reference compound]
inhibition at 0.01 µM [1, 5]: 3 to 7%
inhibition at 0.5 µM [1, 6]: 0 to 3%

Cc1nc(Nc2ncc(C(=O)Nc3c(C)cccc3Cl)s2)cc(N2CCN(CCO)CC2)n1 [Dasatinib, reference compound]
inhibition at 0.01 µM [2, 7]: 0 to 5%
inhibition at 0.5 µM [2, 7]: 15 to 20%
inhibition at 0.01 µM [3, 8]: 10 to 15%
inhibition at 0.5 µM [3, 8]: 40 to 50%
inhibition at 0.01 µM [4, 9]: 10 to 15%
inhibition at 0.5 µM [4, 9]: 15 to 20%

Cc1cc(-c2ccc3c4cnccc4n(C)c3c2)cnc1N1CCN(CC2CCN(c3ccc4c(c3)C(=O)N(N3CCC(=O)NC3=O)C4=O)CC2)CC1 [GT-08555, 2-(2,4-dioxotetrahydropyrimidin-1(2H)-yl)-5-(4-((4-(3-methyl-5-(5-methyl-5H-pyrido[4,3-b]indol-7-yl)pyridin-2-yl)piperazin-1-yl)methyl)piperidin-1-yl)isoindoline-1,3-dione]
inhibition at 0.01 µM ([2]; Table IJ1, Tau inhibitor-based): 30 to 40%
inhibition at 0.5 µM ([2]; Table IJ1, Tau inhibitor-based): 60 to 70%
inhibition at 0.01 µM ([3]; Table IJ2, Tau inhibitor-based): 30 to 40%
inhibition at 0.5 µM ([3]; Table IJ2, Tau inhibitor-based): 70 to 80%

C[C@@H]1CNC(=O)c2cc3ccc(C(=O)Nc4cnn(Cc5ccc(N6CCC(N7CCN(CC8CCN(c9cccc%10c9C(=O)N(N9CCC(=O)NC9=O)C%10=O)CC8)CC7)CC6)cc5)c4)nc3n21 [GT-08344, (R)—N-(1-(4-(4-(4-((1-(2-(2,4-dioxotetrahydropyrimidin-1(2H)-yl)-1,3-dioxoisoindolin-4-yl)piperidin-4-yl)methyl)piperazin-1-yl)piperidin-1-yl)benzyl)-1H-pyrazol-4-yl)-9-methyl-6-oxo-6,7,8,9-tetrahydropyrido[3′,2′: 4,5]pyrrolo[1,2-a]pyrazine-2-carboxamide]
inhibition at 0.01 µM [1, 10]: 5 to 10%
inhibition at 0.5 µM [1, 11]: 80 to 100%

COc1cc2nn([C@H]3CC[C@H](CN4C[C@H]5C[C@@H]4CN5c4ccc5c(c4)C(=O)N(N4CCC(=O)NC4=O)C5=O)CC3)cc2cc1NC(=O)c1cccc(C(F)(F)F)c1 [GT-08663, N-(2-((1R,4r)-4-(((1R,4R)-5-(2-(2,4-dioxotetrahydropyrimidin-1(2H)-yl)-1,3-dioxoisoindolin-5-yl)-2,5-diazabicyclo[2.2.1]heptan-2-yl)methyl)cyclohexyl)-6-methoxy-2H-indazol-5-yl)-3-(trifluoromethyl)benzamide]
inhibition at 0.01 µM [1, 5]: 10 to 15%
inhibition at 0.5 µM [1, 6]: 15 to 20%

Cn1c(=O)n(C2CCC(=O)NC2=O)c2cccc(C#CCOC3CCN(C[C@H]4CC[C@H](n5cc(NC(=O)c6cnn7ccc(N8C[C@H]9C[C@@H]8CO9)nc67)c(C(F)F)n5)CC4)CC3)c21 (stereo partly shown) [KT-474, reference compound]
inhibition at 0.01 µM [2, 12]: 5 to 10%
inhibition at 0.5 µM [2, 12]: 15 to 20%
inhibition at 0.01 µM [1, 5]: 7 to 10%
inhibition at 0.5 µM [1, 6]: 7 to 10%

O=C1CCN(N2C(=O)c3ccc(CN4CCC(N5CCN(c6ncc(C(=O)Nc7ccc(OC(F)(F)Cl)cc7)cc6-c6cc[nH]n6)CC5)CC4)cc3C2=O)C(=O)N1 [GT-08225, N-(4-(chlorodifluoromethoxy)phenyl)-6-(4-(1-((2-(2,4-dioxotetrahydropyrimidin-1(2H)-yl)-1,3-dioxoisoindolin-5-yl)methyl)piperidin-4-yl)piperazin-1-yl)-5-(1H-pyrazol-3-yl)nicotinamide]
inhibition at 0.01 µM [4, 9]: 10 to 15%
inhibition at 0.5 µM [4, 9]: 30 to 40%

N#Cc1ccc(O[C@H]2CC[C@H](NC(=O)c3ccc(N4CCC(CN5CCN(c6cc(F)c7c(c6)C(=O)N(N6CCC(=O)NC6=O)C7=O)CC5)CC4)nn3)CC2)cc1Cl [GT-05233, N-((1r,4r)-4-(3-chloro-4-cyanophenoxy)cyclohexyl)-6-(4-((4-(2-(2,4-dioxotetrahydropyrimidin-1(2H)-yl)-7-fluoro-1,3-dioxoisoindolin-5-yl)piperazin-1-yl)methyl)piperidin-1-yl)pyridazine-3-carboxamide]
inhibition at 0.01 µM ([4]; Table IF2, AR inhibitor-based): 15 to 20%
inhibition at 0.5 µM ([4]; Table IF2, AR inhibitor-based): 20 to 30%

COc1cc2nn([C@H]3CC[C@H](CN4CC5CCC(C4)N5c4ccc5c(c4)C(=O)N(N4CCC(=O)NC4=O)C5=O)CC3)cc2cc1NC(=O)c1cccc(C(F)(F)F)c1 [GT-08665, N-(2-((1r,4r)-4-((8-(2-(2,4-dioxotetrahydropyrimidin-1(2H)-yl)-1,3-dioxoisoindolin-5-yl)-3,8-diazabicyclo[3.2.1]octan-3-yl)methyl)cyclohexyl)-6-methoxy-2H-indazol-5-yl)-3-(trifluoromethyl)benzamide]
inhibition at 0.01 µM [1, 5]: 15 to 20%
inhibition at 0.5 µM [1, 6]: 15 to 20%

C[C@@H]1CNC(=O)c2cc3ccc(C(=O)Nc4cnn(Cc5ccc(N6CCC(N7CCN(CC8CCN(c9ccc%10c(c9)C(=O)N(N9CCC(=O)NC9=O)C%10=O)CC8)CC7)CC6)cc5)c4)nc3n21 [GT-08343, (R)—N-(1-(4-(4-(4-((1-(2-(2,4-dioxotetrahydropyrimidin-1(2H)-yl)-1,3-dioxoisoindolin-5-yl)piperidin-4-yl)methyl)piperazin-1-yl)piperidin-1-yl)benzyl)-1H-pyrazol-4-yl)-9-methyl-6-oxo-6,7,8,9-tetrahydropyrido[3′,2′: 4,5]pyrrolo[1,2-a]pyrazine-2-carboxamide]
inhibition at 0.01 µM ([1]; MOLT-4, Molt-4, 10 nM, Table IN2): 20 to 30%
inhibition at 0.01 µM [1, 10]: 30 to 40%
inhibition at 0.5 µM ([1]; MOLT-4, Molt-4, 500 nM, Table IN2): 30 to 50%
inhibition at 0.5 µM [1, 11]: 60 to 70%

O=C1CCN(N2Cc3cc(CN4CCN(C5CCN(c6ncc(C(=O)Nc7ccc(OC(F)(F)Cl)cc7)cc6-c6cc[nH]n6)CC5)CC4)ccc3C2=O)C(=O)N1 [GT-08226, N-(4-(chlorodifluoromethoxy)phenyl)-6-(4-(4-((2-(2,4-dioxotetrahydropyrimidin-1(2H)-yl)-1-oxoisoindolin-5-yl)methyl)piperazin-1-yl)piperidin-1-yl)-5-(1H-pyrazol-3-yl)nicotinamide]
inhibition at 0.01 µM [4, 9]: 5 to 10%
inhibition at 0.5 µM [4, 9]: 30 to 40%

CN(c1cccc(CNc2nc(Nc3ccc(N4CCN(CC5CCN(c6ccc7c(c6)C(=O)N(N6CCC(=O)NC6=O)C7=O)CC5)CC4)cc3)ncc2C(F)(F)F)c1)S(C)(=O)=O [GT-08246, N-(3-(((2-((4-(4-((1-(2-(2,4-dioxotetrahydropyrimidin-1(2H)-yl)-1,3-dioxoisoindolin-5-yl)piperidin-4-yl)methyl)piperazin-1-yl)phenyl)amino)-5-(trifluoromethyl)pyrimidin-4-yl)amino)methyl)phenyl)-N-methylmethanesulfonamide]
inhibition at 0.01 µM ([2]; Table IG1, FAK inhibitor-based): 30 to 40%
inhibition at 0.5 µM ([2]; Table IG1, FAK inhibitor-based): 30 to 40%
